pKi: −log10 of the molar value.
How the values were obtained:
Assay type in all cases: biochemical
[1] = target: PLK2 (Homo sapiens, UniProt Q9NYY3); experiment: PLK2 Inhibition Assay (radioactive-phosphate incorporation); conditions: selectivity ratio, PLK2 over PLK1
Description: (§1) The compounds of the present invention are evaluated as inhibitors of human PLK kinase using the following assays.
Compounds were screened for their ability to inhibit PLK2 using a radioactive-phosphate incorporation assay. Assays were carried out in a mixture of 25 mM HEPES (pH 7.5), 10 mM MgCl2, 0.1% BSA, and 2 mM DTT. Final substrate concentrations were 200 μM [γ-33P]ATP (57 mCi 33P ATP/mmol ATP, Amersham Pharmacia Biotech/Sigma Chemicals) and 300 μM peptide (KKKISDELMDATFADQEAK) [SEQ ID:3]. Assays were carried out at 25° C. in the presence of 25 nM PLK2. An assay stock buffer solution was prepared containing all of the reagents listed above, with the exception of ATP and the test compound of interest. 30 μL of the stock solution was placed in a 96 well plate followed by addition of 2 μL of DMSO stock containing serial dilutions of the test compound (typically starting from a final concentration of 10 μM with 2-fold serial dilutions) in duplicate (final DMSO concentration 5%). The plate was pre-incubated for 10 minutes at 25° C. and the reaction initiated by addition of 8 μL [γ-33P]ATP (final concentration 200 μM).
(§2) The reaction was stopped after 90 minutes by the addition of 100 μL 0.14 M phosphoric acid. A multiscreen phosphocellulose filter 96-well plate (Millipore, Cat No. MAPHN0B50) was pretreated with 100 μL 0.2M phosphoric acid prior to the addition of 125 μL of the stopped assay mixture. The plate was washed with 4×200 μL 0.2 M phosphoric acid. After drying, 100 μL Optiphase ‘SuperMix’ liquid scintillation cocktail (Perkin Elmer) was added to the well prior to scintillation counting (1450 Microbeta Liquid Scintillation Counter, Wallac).
(§3) After removing mean background values for all of the data points, Ki(app) data were calculated from non-linear regression analysis of the initial rate data using the Prism software package (GraphPad Prism version 3.0cx for Macintosh, GraphPad Software, San Diego Calif., USA).

[2] = target: T1, PLK3 (S38-A340) (Homo sapiens, UniProt Q9H4B4); experiment: PLK3 Inhibition Assay (radioactive-phosphate incorporation); conditions: selectivity ratio, PLK3 over PLK1
T1 construct: in the presence of 5 nM PLK3 (S38-A340)
T1 sequence (Q9H4B4 58-340 limits assumed): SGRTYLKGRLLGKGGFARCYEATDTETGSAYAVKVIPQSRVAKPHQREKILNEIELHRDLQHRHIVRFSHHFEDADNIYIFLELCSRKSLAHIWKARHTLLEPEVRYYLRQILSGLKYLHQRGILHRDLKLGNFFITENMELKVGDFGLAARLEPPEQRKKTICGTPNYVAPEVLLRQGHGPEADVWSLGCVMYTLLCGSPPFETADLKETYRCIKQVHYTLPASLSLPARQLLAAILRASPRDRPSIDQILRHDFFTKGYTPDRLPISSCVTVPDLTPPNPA
Description: as §1
Compounds were screened for their ability to inhibit PLK3 using a radioactive-phosphate incorporation assay. Assays were carried out in a mixture of 25 mM HEPES (pH 7.5), 10 mM MgCl2, and 1 mM DTT. Final substrate concentrations were 75 μM [γ-33P]ATP (60 mCi 33P ATP/mmol ATP, Amersham Pharmacia Biotech/Sigma Chemicals) and 10 μM peptide (SAM68 protein Δ332-443). Assays were carried out at 25° C. in the presence of 5 nM PLK3 (S38-A340). An assay stock buffer solution was prepared containing all of the reagents listed above, with the exception of ATP and the test compound of interest. 30 μL of the stock solution was placed in a 96 well plate followed by addition of 2 μL of DMSO stock containing serial dilutions of the test compound (typically starting from a final concentration of 10 μM with 2-fold serial dilutions) in duplicate (final DMSO concentration 5%). The plate was pre-incubated for 10 minutes at 25° C. and the reaction initiated by addition of 8 μL [γ-33P]ATP (final concentration 75 μM).
as §2, with “60” for “90”, “0.14M” for “0.14 M”
as §3

[3] = target: PLK1 (Homo sapiens, UniProt P53350); experiment: PLK1 Inhibition Assay I (radioactive-phosphate incorporation); conditions: Ki(app); PLK1 Inhibition Assay I or II (table does not say which)
Chain of PLK1 (P53350 whole entry): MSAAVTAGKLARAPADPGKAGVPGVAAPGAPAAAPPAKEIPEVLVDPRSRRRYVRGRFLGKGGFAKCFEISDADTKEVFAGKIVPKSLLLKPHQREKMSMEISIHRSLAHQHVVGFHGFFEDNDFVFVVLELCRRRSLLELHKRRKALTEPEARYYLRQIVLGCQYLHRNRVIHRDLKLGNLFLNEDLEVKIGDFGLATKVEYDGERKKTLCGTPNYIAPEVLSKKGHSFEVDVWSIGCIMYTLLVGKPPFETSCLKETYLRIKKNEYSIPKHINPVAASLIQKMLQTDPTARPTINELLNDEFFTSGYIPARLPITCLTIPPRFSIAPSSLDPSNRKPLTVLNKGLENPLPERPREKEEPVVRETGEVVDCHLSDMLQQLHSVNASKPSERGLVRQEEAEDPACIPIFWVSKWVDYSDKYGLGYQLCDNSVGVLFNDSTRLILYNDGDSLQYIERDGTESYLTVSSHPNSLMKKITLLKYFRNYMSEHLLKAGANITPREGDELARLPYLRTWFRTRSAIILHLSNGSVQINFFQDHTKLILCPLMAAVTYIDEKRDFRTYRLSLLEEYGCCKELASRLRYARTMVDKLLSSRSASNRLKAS
Procedure, shortened: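 Ki(app) values came from non-linear regression of initial rates after background subtraction, with phosphopeptide measured by phosphocellulose filter binding and scintillation counting. PLK1 at 2 nM was preincubated with compound (typically from 10 μM, 2-fold dilutions) for 10 min, then run 240 min at 25° C with 350 μM [γ-33P]ATP and 450 μM peptide substrate in HEPES pH 7.5 buffer.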

Chain of PLK2 (Q9NYY3 whole entry): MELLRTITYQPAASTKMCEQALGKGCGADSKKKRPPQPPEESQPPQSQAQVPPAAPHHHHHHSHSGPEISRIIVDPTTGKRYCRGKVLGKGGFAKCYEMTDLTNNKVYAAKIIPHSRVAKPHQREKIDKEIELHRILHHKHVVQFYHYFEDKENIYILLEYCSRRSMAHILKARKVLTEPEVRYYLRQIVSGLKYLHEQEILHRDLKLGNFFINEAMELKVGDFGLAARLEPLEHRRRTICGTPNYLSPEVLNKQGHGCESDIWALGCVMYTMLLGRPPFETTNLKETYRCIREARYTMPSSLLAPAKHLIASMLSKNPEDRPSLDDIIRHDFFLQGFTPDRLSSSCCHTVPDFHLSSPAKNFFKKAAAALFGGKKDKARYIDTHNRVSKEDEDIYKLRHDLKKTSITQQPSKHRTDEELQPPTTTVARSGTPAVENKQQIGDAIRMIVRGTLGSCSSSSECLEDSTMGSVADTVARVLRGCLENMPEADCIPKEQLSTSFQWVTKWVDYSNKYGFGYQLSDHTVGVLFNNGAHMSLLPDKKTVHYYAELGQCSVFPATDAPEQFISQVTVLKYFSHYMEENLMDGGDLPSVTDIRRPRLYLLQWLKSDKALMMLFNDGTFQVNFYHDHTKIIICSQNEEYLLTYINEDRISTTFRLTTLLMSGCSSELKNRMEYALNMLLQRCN

Structure (SMILES) | Ki(PLK2)/Ki(PLK1) [1] | Ki(PLK3)/Ki(PLK1) [2] | pKi [3]
CC(Nc1ncc(C#N)c(-c2c[nH]c3ncc(C(F)(F)F)cc23)n1)c1ccc(N2CCNCC2)nc1 (stereo not drawn) [Compound I-167, 2-(1-(6-(piperazin-1-yl)pyridin-3-yl)ethylamino)-4-(5-(trifluoromethyl)-1H-pyrrolo[2,3-b]pyridin-3-yl)pyrimidine-5-carbonitrile] | 914 | 586 | > 8.52
CNCCNc1ccc(C(C)Nc2ncc(C#N)c(-c3c[nH]c4ncc(C(F)(F)F)cc34)n2)cn1 (stereo not drawn) [Compound I-278, 2-(1-(6-(2-(methylamino)ethylamino)pyridin-3-yl)ethylamino)-4-(5-(trifluoromethyl)-1H-pyrrolo[2,3-b]pyridin-3-yl)pyrimidine-5-carbonitrile] | 208 | 142 | > 8.52
CC(Nc1ncc(C#N)c(-c2c[nH]c3ncc(C(F)(F)F)cc23)n1)c1ccc(N[C@@H]2CCNC2)nc1 (stereo partly drawn) [Compound I-272, 2-(1-(6-((R)-pyrrolidin-3-ylamino)pyridin-3-yl)ethylamino)-4-(5-(trifluoromethyl)-1H-pyrrolo[2,3-b]pyridin-3-yl)pyrimidine-5-carbonitrile] | 67 | 14 | > 8.52
C[C@H](Nc1ncc(C#N)c(-c2c[nH]c3ncc(C(F)(F)F)cc23)n1)c1ccc(N2CCN(C)CC2)nc1 [Compound I-148] | 63 | 70 | 7.40 to 8.52
CNCCN(C)c1ccc([C@@H](C)Nc2ncc(C#N)c(-c3c[nH]c4ncc(C(F)(F)F)cc34)n2)cn1 [Compound I-275, 2-((R)-1-(6-(methyl(2-(methylamino)ethyl)amino)pyridin-3-yl)ethylamino)-4-(5-(trifluoromethyl)-1H-pyrrolo[2,3-b]pyridin-3-yl)pyrimidine-5-carbonitrile] | 313 | 919 | > 8.52
C[C@@H](Nc1ncc(C#N)c(-c2c[nH]c3ncc(C(F)(F)F)cc23)n1)c1cnc(N[C@H]2CCN(C)C2)nc1 [Compound I-268, 2-((R)-1-(2-((S)-1-methylpyrrolidin-3-ylamino)pyrimidin-5-yl)ethylamino)-4-(5-(trifluoromethyl)-1H-pyrrolo[2,3-b]pyridin-3-yl)pyrimidine-5-carbonitrile] | 293 | 141 | > 8.52
CC(Nc1ncc(C#N)c(-c2c[nH]c3ncc(C(F)(F)F)cc23)n1)c1ccc(N2CCN(C)CC2)nc1 (stereo not drawn) [Compound I-139, 2-(1-(6-(4-methylpiperazin-1-yl)pyridin-3-yl)ethylamino)-4-(5-(trifluoromethyl)-1H-pyrrolo[2,3-b]pyridin-3-yl)pyrimidine-5-carbonitrile] | 1000 | 456 | > 8.52

Further lines, results first:

Ki(PLK2)/Ki(PLK1) [1] | Ki(PLK3)/Ki(PLK1) [2] | pKi [3] | Structure (SMILES)
180 | 163 | > 8.52 | CC(Nc1ncc(C#N)c(-c2c[nH]c3ncc(C(F)(F)F)cc23)n1)c1ccc(N2CCCNCC2)cc1 (stereo not drawn) [Compound I-131, 2-(1-(4-(1,4-diazepan-1-yl)phenyl)ethylamino)-4-(5-(trifluoromethyl)-1H-pyrrolo[2,3-b]pyridin-3-yl)pyrimidine-5-carbonitrile]
211 | 126 | > 8.52 | CC(Nc1ncc(C#N)c(-c2c[nH]c3ncc(C(F)(F)F)cc23)n1)c1ccc(N2CCCN(C)CC2)cc1 (stereo not drawn) [Compound I-126, 2-(1-(4-(4-methyl-1,4-diazepan-1-yl)phenyl)ethylamino)-4-(5-(trifluoromethyl)-1H-pyrrolo[2,3-b]pyridin-3-yl)pyrimidine-5-carbonitrile]
523 | 186 | > 8.52 | C[C@@H](Nc1ncc(C#N)c(-c2c[nH]c3ncc(C(F)(F)F)cc23)n1)c1ccc(N2CCN(C)CC2)nc1 (single isomer, unassigned) [Compound I-147]
1813 | 581 | > 8.52 | C[C@H]1CN(c2ccc([C@@H](C)Nc3ncc(C#N)c(-c4c[nH]c5ncc(C(F)(F)F)cc45)n3)cn2)CCN1 [Compound I-273, 2-((R)-1-(6-((S)-3-methylpiperazin-1-yl)pyridin-3-yl)ethylamino)-4-(5-(trifluoromethyl)-1H-pyrrolo[2,3-b]pyridin-3-yl)pyrimidine-5-carbonitrile]

From patent publication US8530489B2 (Vertex Pharmaceuticals Incorporated, priority 2006, dated 2013)
